Data published in publication PMC5786306, “An AKAP-Lbc-RhoA interaction inhibitor promotes the translocation of aquaporin-2 to the plasma membrane of renal collecting duct principal cells” (PLoS ONE, 2018).
Entries after “also recorded” stand apart in the source; their conditions may differ. Read-outs that look alike come from different tables or passages of the source.

Legend:
[1] = target: T1, interaction of AKAP-Lbc/DHPH and RhoA (Homo sapiens, UniProt P61586); assay: Homogeneous time-resolved fluorescence (HTRF) assay; format: binding
T1 construct: His6-AKAP-Lbc/DHPH (aa 1972–2342 of human AKAP-Lbc; NP_006729.4); made in house
From the text: Fig 2 The small molecule Scaff10-8 inhibits the interaction of the DH domain of AKAP-Lbc and RhoA. (A). Principle of homogenous time-resolved fluorescence (HTRF) assay. Recombinant His-AKAP-Lbc/DHPH and GST-RhoA were generated. The tags are recognized by specific antibodies coupled to fluorescent dyes. When the two proteins interact, donor and acceptor dyes of the antibodies are in close proximity, energy transfer occurs upon excitation at 320 nm and a FRET signal is detected (665 nm). If a compound disrupts the interaction of the DHPH domain and RhoA, the proximity of the fluorescent moieties remains insufficient for a FRET signal to occur. […] As expected, excess untagged Rho decreases the binding between GST-RhoA and His-AKAP-Lbc/DHPH in a dose-dependent manner (lower left panel). […] (C) The influence of Scaff10-8 on the interaction of RhoA with the recombinant DH domain of AKAP-Lbc in the absence of the PH domain was determined by Alpha screen. […] The IC50 value is indicated.
The assay was essentially carried out as described. Scaff10 derivatives were added to His6-AKAP-Lbc/DHPH protein (250 nM final concentration) in HTRF buffer (PBS; 4 mM MgCl2; 0.05% Tween 20) in 384 well plates (Proxiplate-384 Plus, white, #6008289; Perkin Elmer LAS, Rodgau, Germany). Concentrations of Scaff10 derivatives ranged between 1.56–200 μM (2% DMSO final concentration); HTRF buffer with 2% DMSO served as a control. GST-RhoA (30 nM final concentration) in HTRF buffer and anti-GST antibody coupled to terbium (donor) and anti-His6-tag antibody coupled to XL665 (acceptor) were added to all wells (final antibody concentration: 2 μg/ml). After 1 h incubation at room temperature in the dark, FRET signals were recorded at 620 and 665 nm using a Genios Pro plate reader (Tecan Austria GmbH, Grödig, AT) and the ratios of […] to 620 nm were calculated. Wells containing no compound were set to 100% interaction of AKAP-Lbc/DHPH with RhoA, wells containing GST-RhoA only (without His6-AKAP-Lbc/DHPH) were set to 0% interaction. To exclude any interference of the tags and/or antibodies with Scaff10 derivatives, a His6-GST fusion protein replaced the two tagged proteins in a control assay. Wells containing His6-GST fusion protein were set to 100% interaction of His6-GST, wells containing no fusion protein were set to 0% interaction.

Nephelometric solubility = format: physicochemical; conditions: DMEM + 10 % FCS, plasma or biological fluid, kinetic from dmso stock, maximal solubility in DMEM + 10 % FCS
Protocol: Solubility of Scaff10 derivatives was assessed nephelometrically. Scaff10 derivatives are moderately to poorly soluble in aqueous solutions due to their large number of aromatic rings having lipophilic character. Details about NMR, LC/MS and HPLC characterization steps are given in the Supplemental Information.
Suppl. Tab. 3: Overview of all 55 Scaff10 derivatives.Structures labeld with 1 were commercially obtained. MW = molecular weight. logP = calculated partition coefficient (using […]
Solubility was assessed nephelometrically in DMEM + 10 % FCS + Scaff10 derivative with either 0.3 or 2 % DMSO
final concentration; values in µM indicate maximal solubility of the compound under the respective condition. Yield in % indicates total yield of the last step of chemical synthesis
for each of Scaff10 derivatives. n.d. = not determined. n.i. = not indicated.
Scaff10 MW Number of exp. 2 % DMSO 0.3 % DMSO Scaff10 Yield
Structure log P Disruption of the PPI IC50 [µM]
derivative [g/mol] in dupl. [µM] [µM] class [%]

[2] = target: T2, interaction of the DH domain of AKAP-Lbc and RhoA (Homo sapiens, UniProt P61586); assay: Alpha screen assay; format: binding
T2 construct: The proteins used were N-terminally His6-tagged AKAP-Lbc-DH domain
Protocol: Assays were performed according to the manufacturer’s protocol (PerkinElmer) with minor modifications. All reagents were diluted in buffer containing 25 mM Hepes, pH 7.4, 100 mM NaCl, 0.1% bovine serum albumin, 0.05% CHAPS and 50 μM GDP and allowed to equilibrate to room temperature before addition to plates. […] The proteins used were N-terminally His6-tagged AKAP-Lbc-DH domain and C-terminally biotinylated RhoA. […] 8 μL of assay buffer containing donor and acceptor beads at 1:400 dilution was then added, the plate was incubated in the dark for 60 min and then read on a PheraStar FS plate reader (BMG Labtech, Germany) using an AlphaScreen^TM 680 excitation/570 emission filter set.
11.6 μL of a solution containing 100 nM RhoA and 200 nM AKAP13 in assay buffer was added and incubated with the compounds for 30 min at RT in foil-sealed plates. 8 μL of assay buffer containing donor and acceptor beads at 1:400 dilution was added. The plate was incubated in the dark for 60 min and then read on a PheraStar FS plate reader.

[3] = tested on: AQP2 localization in MCD4 cells; assay: Immunofluorescence microscopy of AQP2 in MCD4 cells; format: cell-based, mouse; conditions: 30 μM
[4] = 0.3 % DMSO final, read-out: Solubility 0.3 % DMSO
[5] = 2 % DMSO final, read-out: Solubility 2 % DMSO

T1 sequence (P61586 whole entry, the tested form may be a part): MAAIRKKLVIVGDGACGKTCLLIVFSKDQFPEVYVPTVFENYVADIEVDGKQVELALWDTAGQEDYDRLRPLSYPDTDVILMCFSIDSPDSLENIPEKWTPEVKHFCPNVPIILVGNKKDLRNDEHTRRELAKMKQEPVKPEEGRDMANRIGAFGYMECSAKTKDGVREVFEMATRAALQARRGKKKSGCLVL
T2 sequence (P61586 whole entry, the tested form may be a part): as above

COc1ccc(-c2coc3cc4oc(=O)c(C)c(C)c4cc23)cc1 [Scaff10, 3-(4-Methoxyphenyl)-5,6-dimethyl-furo[3,2-g]chromen-7-one]
inhibitory effect on the AKAP-Lbc/DHPH-RhoA interaction ([1]; HTRF; result in words): no inhibitory effect
IC50 ([1]; read-out: IC50 ± SEM; Table 1; HTRF; '-' = no IC50, inactive (n.d. is used separately in S3 Table)): > 200 µM
solubility (Nephelometric solubility; [4]): 75 µM
solubility (Nephelometric solubility; [5]): 85 µM

COc1ccc(-c2coc3cc4oc(=O)c(CCC(=O)O)c(C)c4cc23)cc1 [Scaff10-8, 3-[3-(4-Methoxyphenyl)-5-methyl-7-oxo-furo[3,2-g]chromen-6-yl] propanoic acid]
IC50 ([1]; IC50 ± SEM, Table 1; HTRF; '-' = no IC50, inactive (n.d. is used separately in S3 Table)): 34.1 ± 1.7 µM
IC50 [2]: 42 µM
localization of AQP2 in MCD4 cells [3]: induced cAMP-independently the translocation of AQP2 to the plasma membrane
solubility (Nephelometric solubility; [4]): 30 µM
solubility (Nephelometric solubility; [5]): 50 µM

CCOC(=O)CCc1c(C)c2ccc(OCC(=O)c3ccc(OC)cc3)cc2oc1=O [Scaff10-7, Ethyl 3-[7-[2-(4-methoxyphenyl)-2-oxo-ethoxy]-4-methyl-2-oxo-chromen-3-yl]propanoate]
inhibitory effect on the AKAP-Lbc/DHPH-RhoA interaction ([1]; HTRF; result in words): did not interfere; also recorded: without inhibitory effects
IC50 ([1]; Table 1; HTRF; '-' = no IC50, inactive (n.d. is used separately in S3 Table); read-out: IC50 ± SEM): > 200 µM
inhibitory effect in Alpha screen ([2]; result in words): without inhibitory effects
localization of AQP2 in MCD4 cells [3]: did not affect the location of AQP2
solubility (Nephelometric solubility; [4]): 40 µM
solubility (Nephelometric solubility; [5]): 70 µM
